Read-outs that look alike come from different tables or passages of the source.
Experiments:
MIA PaCa-2 = assay: Viability assay (CELLTITER-GLO), 24 hours treatment; type: cell-based, human
Experimental: (§1) In these experiments, viability assays after 24 hours treatment of human and murine pancreatic cancer cell lines and synovial sarcoma cell lines with SW V-49s or its parent compounds SV119 and Erastin, both singly and in combination, were performed. […] In comparison.
(§2) Cytotoxicity of the drugs was evaluated by CELLTITER-GLO®. Luminescent cell viability assay (Promega, Madison, Wis.). Pancreatic cell lines were plated at a density of 2×10^4/well in white 96 well, clear bottom plates for 24 hours prior to treatment. Drugs were dissolved in DMSO and serially diluted in culture medium to achieve the final concentration of DMSO less than 1%. Cells were then treated for 24 hours and 100 μl of the CELLTITER-GLO® reagent was added to each well. The contents of the plates were mixed using an orbital shaker and subsequently incubated for 10 minutes at room temperature. Luminescence signal was measured using a multi-mode microplate reader (BioTek instruments. Winooski, Vt.). Different drug concentrations were assayed in triplicate. To evaluate the efficacy of the drugs, IC50 of the compounds was calculated on a panel of human and mouse derived pancreatic cancer cell lines in vitro. Cells were treated for 24 hours with SW V-49s, SV119, Erastin, and an equimolar mixture of SV119 and Erastin, then CELLTITER-GLO® viability assay was performed.

BxPC-3 = assay: as above; type: cell-based, human
Experimental: as §1, §2

PANC-1 = assay: as above; type: cell-based, human
Experimental: as §1, §2

[1] = test system: all human and murine pancreatic cancer cell lines tested; assay: Viability assay on panel of pancreatic cancer cell lines; type: cell-based
Experimental: as §1, §2

AsPC-1 = assay: Viability assay (CELLTITER-GLO), 24 hours treatment; type: cell-based, human
Experimental: as §1, §2
AsPC-1 and SYO-1 cells were plated in 96 well plate overnight then treated with similar concentrations of Erastin for 24 hours. Viability assay was performed after 24 hours. […] (p<0.0001), (FIG. 10).

[2] = test system: reactive oxygen species (ROS); assay: Reactive oxygen species (ROS) assay in AsPC-1 cells; type: cell-based, human; settings: 8 μM; for increase in ROS: 30 min, compared to Erastin, SV119 or combination, FIG. 6; for ROS level compared to others: one hour, FIG. 11B
Experimental: In FIG. 6, results are shown for reactive oxygen species (ROS) assays of Aspc-1 treated with 8 μM 8 μM SW V-49s, 8 μM Erastin, 8 μM SV119, or 8 μM of an equimolar mixture of Erastin and SV119, or a positive control for 30 min. […] Parent compounds SV119 and Erastin, applied to cells either singly or in combination, had no effect at the same concentration.
ROS measurement was performed using Total ROS/Superoxide Detection Kit (Enzo life sciences, Farmingdale, N.Y.) according to the manufacturer's instructions. Briefly. As PC-1 cells were seeded at a density of 2×10^4 cells/well in a black wall clear bottom 96-well plate for 24 hours. Compounds were dissolved in DMSO and diluted in culture medium to achieve a final concentration of DMSO less than 1%. AsPC-1 cells were treated with 8 μM of SV119, Erastin, and equimolar mixture of SV119 and Erastin. ROS assay was performed one hour after treatment. Cells were treated for one hour, then media was removed and 100 μL/well of ROS/Superoxide Detection Mix was added. Fluorescence signal was measured using a multi-mode microplate reader (Bio-Tek, Winooski, Vt.). The assay was performed in 6 replicates.

KCKO cells = assay: Viability assay (CELLTITER-GLO), 24 hours treatment; type: cell-based, murine
Experimental: as §1, §2

caspase 8 = assay: CASPASE-GLO caspase 8 assay in AsPC-1 cells; type: cell-based, human; settings: 4 μM, 24 hours, FIG. 12C
Experimental: In these experiments, caspase-3/7.8 and 9 activities were measured In AsPC-1 cells using the corresponding CASPASE-GLO® Assay according to the manufacturer's instructions (Promega, Madison. Wis.). This assay is based on a caspase-specific substrate, which is cleaved to release aminoluciferin, a substrate of luciferase that results in caspase-specific luminescence signals. Cells were seeded at a density of 2×10^4 in white 96-well, clear bottom plates for 24 hours before treatment with 4 μM of compounds. The contents were then mixed using a plate shaker for 30 seconds, thereafter incubated at room temperature for 90 minutes. Luminescence signal was measured using a multi-mode microplate reader (BioTek). Assay was performed in triplicates, and the caspase activity of DMSO was considered as a base line.
The present inventors have shown that SV119 induces caspase-3 dependent apoptosis (Kashiwagi, H., el al. Mol Cancer 2007; 6:48). In these experiments, AsPC-1 cells were treated with 4 μM of SW V-49s. SV119, Erastin, and equimolar mixture of SV119 and Erastin for 24 hours. Using CASPASE-GLO® Assays, Caspase-3 level was measured to assess the activity of SW 119 domain of the SW V-49s compound and Caspase-8 and 9 levels were measured to identify which apoptotic pathway was involved.

CCOc1ccccc1-n1c(C(C)N2CCN(C(=O)COc3ccc(Cl)cc3)CC2)nc2ccccc2c1=O (centres unmarked) [Erastin]
IC50 (MIA PaCa-2; Homo sapiens, MIA PaCa-2, 24 h, read-out: IC50 ± SEM, MiaPaCa-2): > 150 µM | IC50 (BxPC-3; Homo sapiens, BXPC-3, 24 h, read-out: IC50 ± SEM, BxPC-3): > 150 µM | IC50 (PANC-1; Homo sapiens, PANC-1, 24 h, read-out: IC50 ± SEM, PANC-1): > 150 µM | IC50 ([1]; Pancreatic cancer cell, 24 h, 24 hours treatment, against all human and murine pancreatic cancer cell lines tested): > 100 µM | IC50 ([1]; Pancreatic cancer cell, 24 h, panel of human and mouse derived pancreatic cancer cell lines): > 150 µM | death of cells (AsPC-1; 40 μM, 24 hours, AsPC-1 cells, FIG. 10): 2% | IC50 (AsPC-1; Homo sapiens, ASPC1, 24 h, read-out: IC50 ± SEM, AsPC-1): > 150 µM | increase in ROS [2]: no effect | ROS level compared to others [2]: no increase | IC50 (KCKO cells; Mus musculus, 24 h, read-out: IC50 ± SEM, KCKO): > 150 µM

COc1ccc(C)cc1NC(=O)OC1C[C@H]2CCC[C@@H](C1)N2CCCCCCN (some centres unmarked) [SV119, reference compound]
IC50 (MIA PaCa-2; 24 hours, mean ± SEM, n ≥ 3, read-out: IC50 ± SEM, MiaPaCa-2): 94.5 ± 1.9 µM | IC50 (BxPC-3; 24 hours, mean ± SEM, n ≥ 3, read-out: IC50 ± SEM, BxPC-3): 54.2 ± 2.6 µM | IC50 (PANC-1; 24 hours, mean ± SEM, n ≥ 3, read-out: IC50 ± SEM, PANC-1): 111 ± 5.3 µM | IC50 ([1]; 24 hours treatment, against all human and murine pancreatic cancer cell lines tested, read-out: IC50): > 54 µM | IC50 (AsPC-1; 24 hours, mean ± SEM, n ≥ 3, read-out: IC50 ± SEM, AsPC-1): 111 ± 8.3 µM | increase in ROS [2]: no effect | ROS level compared to others [2]: no increase | IC50 (KCKO cells; 24 hours, mean ± SEM, n ≥ 3, read-out: IC50 ± SEM, KCKO): 68.7 ± 10.1 µM

CCOc1ccccc1-n1c(CN2CCN(C(=O)COc3ccc(CNCCCCCCN4C5CCCC4CC(OC(=O)Nc4cc(C)ccc4OC)C5)cc3)CC2)nc2ccccc2c1=O.O=C(O)C(=O)O (centres unmarked) [SW V-49s]
IC50 (MIA PaCa-2; Homo sapiens, MIA PaCa-2, 24 h, read-out: IC50 concentration): 2.3 µM | IC50 (MIA PaCa-2; Homo sapiens, MIA PaCa-2, 24 hours, mean ± SEM, n ≥ 3, read-out: IC50 ± SEM, MiaPaCa-2): 3 ± 0.3 µM | IC50 (BxPC-3; Homo sapiens, BXPC-3, 24 h, read-out: IC50 concentration): 2.3 µM | IC50 (BxPC-3; Homo sapiens, BXPC-3, 24 hours, mean ± SEM, n ≥ 3, read-out: IC50 ± SEM, BxPC-3): 2.5 ± 0.1 µM | IC50 (PANC-1; Homo sapiens, PANC-1, 24 h, read-out: IC50 concentration): 4.3 µM | IC50 (PANC-1; Homo sapiens, PANC-1, 24 hours, mean ± SEM, n ≥ 3, read-out: IC50 ± SEM, PANC-1): 4.1 ± 0.2 µM | reduction of IC50 as compared to equimolar mixture of SV119 and Erastin ([1]; 24 hours, pancreatic cancer cell line panel): 17-20 fold | IC50 (AsPC-1; Homo sapiens, ASPC1, 24 h, read-out: IC50 concentration): 3 µM | IC50 (AsPC-1; Homo sapiens, ASPC1, 24 hours, mean ± SEM, n ≥ 3, read-out: IC50 ± SEM, AsPC-1): 3.2 ± 0.3 µM | increase in ROS [2]: 50% | ROS level compared to others [2]: 1.5 fold | increase in caspase 8 (caspase 8): no significant increase | IC50 (KCKO cells; Mus musculus, 24 h, read-out: IC50 concentration): 2.2 µM | IC50 (KCKO cells; Mus musculus, 24 hours, mean ± SEM, n ≥ 3, read-out: IC50 ± SEM, KCKO): 2.4 ± 0.2 µM

— US10975069B2, “Sigma-2 receptor ligand drug conjugates as antitumor compounds, methods of synthesis and uses thereof” (priority 2014, dated 2021)
